Data on 64 compounds can be found in patent US7772263B2, “Compounds for the treatment of inflammatory disorders” (Schering Corporation, priority 2006, dated 2010).

A value given as a limit tells only on which side of the number the result lay.

The target in one test is T1, purified catalytic domain of recombinant human TACE (rhTACEc) (Homo sapiens, UniProt P78536, N452Q/S266A).
T1 construct: rhTACEc, Residue 215 to 477 with two mutation (S266A and N4520) and a 6×His tail; 6xHis (C); made in house; host or cells: baculovirus/Hi5 insect cells
T1 sequence (P78536 215-477 S266A/N452Q limits assumed): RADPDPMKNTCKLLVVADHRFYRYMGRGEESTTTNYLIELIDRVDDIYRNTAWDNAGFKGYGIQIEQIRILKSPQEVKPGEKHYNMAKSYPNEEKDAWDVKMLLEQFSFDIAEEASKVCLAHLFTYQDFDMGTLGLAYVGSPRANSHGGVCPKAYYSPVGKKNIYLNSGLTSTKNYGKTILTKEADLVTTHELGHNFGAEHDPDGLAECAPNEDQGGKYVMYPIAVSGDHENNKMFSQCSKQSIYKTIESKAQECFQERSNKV
The experiment in a line: TACE kinetic assay, cleavage of internally quenched fluorescent peptide substrate SPDL-3. Format: biochemical. As to conditions: Ki (nM), TACE inhibitory activity, rhTACEc 70 pM, 30 μM SPDL-3, 90 min pre-incubation at 25° C.
As for `COc1ccc2c(c1)C(=O)N(C[C@@]1(C#Cc3ccccc3F)NC(=O)NC1=O)C2` [Compound 516], the Ki was determined as 0.13 nM.

The test is the same for the next values; noted with them: TACE inhibition, Table 1001; read-out: Ki Rating.
In the case of `COc1ccc2c(c1)C(=O)N(C[C@@]1(C#Cc3cncc(-n4cccn4)c3)NC(=O)NC1=O)C2` [Compound 482B], the Ki is under 5 nM.
`COc1ccc2c(c1)C(=O)N(C[C@@]1(C#Cc3cncc(-n4ccnc4C)c3)NC(=O)NC1=O)C2` [Compound 482C]: the Ki was under 5 nM.
Take `COc1ccc2c(c1)C(=O)N(C[C@@]1(C#Cc3cncc(N4CCOCC4)c3)NC(=O)NC1=O)C2` [Compound 482]: the Ki is under 5 nM.
`COc1ccc2c(c1)C(=O)N(C[C@@]1(C#Cc3ccc(F)c(F)c3)NC(=O)NC1=O)C2` [Compound 483]: the inhibition constant (Ki) was under 5 nM.
As for `COc1ccc2c(c1)C(=O)N(C[C@@]1(C#Cc3ccc(OC(F)(F)F)cc3)NC(=O)NC1=O)C2` [Compound 484], the Ki is under 5 nM.
As to `COc1ccc2c(c1)C(=O)N(C[C@@]1(C#Cc3ccc(Cl)cc3)NC(=O)NC1=O)C2` [Compound 485], the inhibition constant (Ki) is under 5 nM.
Regarding `COc1ccc2c(c1)C(=O)N(C[C@@]1(C#Cc3ccc(C(F)(F)F)cc3)NC(=O)NC1=O)C2` [Compound 486], the inhibition constant (Ki) was under 5 nM.
With `COc1ccc2c(c1)C(=O)N(C[C@@]1(C#Cc3cnn(C)c3)NC(=O)NC1=O)C2` [Compound 487], the Ki was under 5 nM.
Still for that read-out and setting: the value for `COc1ccc2c(c1)C(=O)N(C[C@@]1(C#Cc3cccc(Cl)c3F)NC(=O)NC1=O)C2` [Compound 488] was under 5 nM; that for `COc1ccc2c(c1)C(=O)N(C[C@@]1(C#Cc3cccc(F)c3F)NC(=O)NC1=O)C2` [Compound 489] was under 5 nM.
Consider `COc1ccc2c(c1)C(=O)N(C[C@@]1(C#Cc3ccc(F)cc3F)NC(=O)NC1=O)C2` [Compound 490], for which the Ki was under 5 nM.
Turning to `COc1ccc2c(c1)C(=O)N(C[C@@]1(C#Cc3c(F)cccc3F)NC(=O)NC1=O)C2` [Compound 491], the Ki is under 5 nM.
As to `COc1ccc2c(c1)C(=O)N(C[C@@]1(C#Cc3c(F)cc(F)cc3F)NC(=O)NC1=O)C2` [Compound 492], the Ki was under 5 nM.
As for `COc1ccc2c(c1)C(=O)N(C[C@@]1(C#Cc3cccc(F)c3Cl)NC(=O)NC1=O)C2` [Compound 493], the Ki was under 5 nM.
As to `COc1ccc2c(c1)C(=O)N(C[C@@]1(C#Cc3ccc4nc(N)sc4c3)NC(=O)NC1=O)C2` [Compound 494], the inhibition constant (Ki) is under 5 nM.
As for `COc1ccc2c(c1)C(=O)N(C[C@@]1(C#Cc3ccc4sc(C)nc4c3)NC(=O)NC1=O)C2` [Compound 495], the Ki was under 5 nM.
Still for that read-out and setting: with `COc1ccc2c(c1)C(=O)N(C[C@@]1(C#Cc3ccc(C)nc3C)NC(=O)NC1=O)C2` [Compound 496] the figure was under 5 nM; with `COc1ccc2c(c1)C(=O)N(C[C@@]1(C#Cc3cc(C)ccc3F)NC(=O)NC1=O)C2` [Compound 497], under 5 nM.
Turning to `COc1ccc2c(c1)C(=O)N(C[C@@]1(C#Cc3cc(F)ccc3C)NC(=O)NC1=O)C2` [Compound 498], the Ki is under 5 nM.
The same measure, in the same setting: with `COc1ccc2c(c1)C(=O)N(C[C@@]1(C#Cc3ccc(Cl)cc3F)NC(=O)NC1=O)C2` [Compound 499] the figure was under 5 nM; with `COc1ccc2c(c1)C(=O)N(C[C@@]1(C#Cc3ccc(C)cc3F)NC(=O)NC1=O)C2` [Compound 500], under 5 nM; with `COc1ccc2c(c1)C(=O)N(C[C@@]1(C#Cc3cccc4nc(N)sc34)NC(=O)NC1=O)C2` [Compound 503], under 5 nM.
Turning to `COc1ccc2c(c1)C(=O)N(C[C@@]1(C#Cc3ccc4nc(NC5CC5)sc4c3)NC(=O)NC1=O)C2` [Compound 504], the Ki was under 5 nM.
Turning to `COc1ccc2c(c1)C(=O)N(C[C@@]1(C#Cc3ccc4sc(N)nc4c3)NC(=O)NC1=O)C2` [Compound 505], the Ki is under 5 nM.
On the same count and under the same terms, with `COc1cncc(C#C[C@]2(CN3Cc4ccc(OC)cc4C3=O)NC(=O)NC2=O)c1` [Compound 506] the figure was under 5 nM.
Consider `CNc1nc2cccc(C#C[C@]3(CN4Cc5ccc(OC)cc5C4=O)NC(=O)NC3=O)c2s1` [Compound 507], for which the Ki is under 5 nM.
On the same count and under the same terms, with `CNc1nc2cc(C#C[C@]3(CN4Cc5ccc(OC)cc5C4=O)NC(=O)NC3=O)ccc2s1` [Compound 508] the figure was under 5 nM; with `COc1ccc2c(c1)C(=O)N(C[C@@]1(C#Cc3ccc4nc(C)sc4c3)NC(=O)NC1=O)C2` [Compound 509], under 5 nM; with `COc1ccc2c(c1)C(=O)N(C[C@@]1(C#Cc3ccc(F)c(Cl)c3)NC(=O)NC1=O)C2` [Compound 510], under 5 nM.
As to `COc1ccc2c(c1)C(=O)N(C[C@@]1(C#Cc3ccc(C)s3)NC(=O)NC1=O)C2` [Compound 513], the Ki was under 5 nM.
Same read-out and setting: the value for `COc1ccc2c(c1)C(=O)N(C[C@@]1(C#Cc3ccccc3C(F)(F)F)NC(=O)NC1=O)C2` [Compound 514] was under 5 nM; that for `COc1ccc2c(c1)C(=O)N(C[C@@]1(C#Cc3ccccc3OC(F)(F)F)NC(=O)NC1=O)C2` [Compound 515] was under 5 nM; that for `COc1ccc2c(c1)C(=O)N(C[C@@]1(C#Cc3ccccc3F)NC(=O)NC1=O)C2` [Compound 516] was under 5 nM.
As for `COc1ccc2c(c1)C(=O)N(C[C@@]1(C#Cc3cc(F)ccc3Cl)NC(=O)NC1=O)C2` [Compound 517], the Ki is under 5 nM.
As to `COc1ccc2c(c1)C(=O)N(C[C@@]1(C#Cc3cc(Cl)ccc3F)NC(=O)NC1=O)C2` [Compound 518], the Ki is under 5 nM.
Same read-out and setting: with `COc1ccc2c(c1)C(=O)N(C[C@@]1(C#Cc3ccc(C(F)(F)F)nc3)NC(=O)NC1=O)C2` [Compound 519] the figure was under 5 nM; with `COc1ccc2c(c1)C(=O)N(C[C@@]1(C#Cc3sc4ccc(Cl)cc4c3C)NC(=O)NC1=O)C2` [Compound 520], under 5 nM.
Consider `COc1ccc2c(c1)C(=O)N(C[C@@]1(C#Cc3cc(F)ccc3F)NC(=O)NC1=O)C2` [Compound 521], for which the Ki is under 5 nM.
As to `COc1ccc2c(c1)C(=O)N(C[C@@]1(C#Cc3ccc(S(N)(=O)=O)s3)NC(=O)NC1=O)C2` [Compound 522], the Ki was under 5 nM.
Take `COc1ccc2c(c1)C(=O)N(C[C@@]1(C#Cc3ccc(C)nn3)NC(=O)NC1=O)C2` [Compound 523]: the Ki was under 5 nM.
On the same count and under the same terms, with `COc1ccc2c(c1)C(=O)N(C[C@@]1(C#Cc3cc(C)c4c(cnn4C)c3)NC(=O)NC1=O)C2` [Compound 524] the figure was under 5 nM.
As to `COc1ccc2c(c1)C(=O)N(C[C@@]1(C#Cc3ccc4nc(C(F)(F)F)n(C)c4c3)NC(=O)NC1=O)C2` [Compound 525], the Ki is under 5 nM.
In the case of `COc1ccc2c(c1)C(=O)N(C[C@@]1(C#Cc3ccc4sccc4c3)NC(=O)NC1=O)C2` [Compound 526], the Ki was under 5 nM.
On to `COc1ccc2c(c1)C(=O)N(C[C@@]1(C#Cc3cc(C)c4nn(C)cc4c3)NC(=O)NC1=O)C2` [Compound 527], for which the Ki was under 5 nM.
For the compound `COc1ccc2c(c1)C(=O)N(C[C@@]1(C#Cc3csc(C(F)F)c3)NC(=O)NC1=O)C2` [Compound 528], the inhibitory constant (Ki) was under 5 nM.
Same read-out and setting: with `COc1ccc2c(c1)C(=O)N(C[C@@]1(C#Cc3ccc(C(F)(F)F)s3)NC(=O)NC1=O)C2` [Compound 529] the figure was under 5 nM.
Take `COc1ccc2c(c1)C(=O)N(C[C@@]1(C#Cc3ccc(C(F)(F)F)cc3F)NC(=O)NC1=O)C2` [Compound 530]: the inhibition constant Ki was under 5 nM.
On to `COc1ccc2c(c1)C(=O)N(C[C@@]1(C#Cc3ccc(S(C)(=O)=O)s3)NC(=O)NC1=O)C2` [Compound 531], for which the Ki is under 5 nM.
As to `COc1ccc2c(c1)C(=O)N(C[C@@]1(C#Cc3csc4ccccc34)NC(=O)NC1=O)C2` [Compound 532], the Ki was under 5 nM.
As to `COc1ccc2c(c1)C(=O)N(C[C@@]1(C#Cc3csc(C)c3)NC(=O)NC1=O)C2` [Compound 533], the inhibitory constant (Ki) is under 5 nM.
On the same count and under the same terms, with `COc1ccc2c(c1)C(=O)N(C[C@@]1(C#Cc3cccc(=O)[nH]3)NC(=O)NC1=O)C2` [Compound 535] the figure was under 5 nM; with `COc1ccc2c(c1)C(=O)N(C[C@@]1(C#Cc3ccc(=O)[nH]c3)NC(=O)NC1=O)C2` [Compound 536], under 5 nM; with `COc1ccc2c(c1)C(=O)N(C[C@@]1(C#Cc3ccsc3C(N)=O)NC(=O)NC1=O)C2` [Compound 537], under 5 nM.
As to `COc1ccc2c(c1)C(=O)N(C[C@@]1(C#Cc3ccc(C(N)=O)s3)NC(=O)NC1=O)C2` [Compound 538], the Ki is under 5 nM.
Consider `COc1ccc2c(c1)C(=O)N(C[C@@]1(C#Cc3ccc[n+]([O-])c3)NC(=O)NC1=O)C2` [Compound 539], for which the Ki was under 5 nM.
Take `COc1ccc2c(c1)C(=O)N(C[C@@]1(C#Cc3cccn(C)c3=O)NC(=O)NC1=O)C2` [Compound 540]: the Ki is under 5 nM.
Same read-out and setting: with `COc1ccc2c(c1)C(=O)N(C[C@@]1(C#Cc3cncc(N)c3)NC(=O)NC1=O)C2` [Compound 554] the figure was under 5 nM; with `COc1ccc2c(c1)C(=O)N(C[C@@]1(C#Cc3cnc(O)cc3C)NC(=O)NC1=O)C2` [Compound 555], under 5 nM.
Still for that read-out and setting: the value for `COc1ccc2c(c1)C(=O)N(C[C@@]1(C#Cc3cn[nH]c3)NC(=O)NC1=O)C2` [Compound 900] was under 5 nM.
Take `COc1ccc2c(c1)C(=O)N(C[C@@]1(C#Cc3ccc(C(=O)NC4CC4)o3)NC(=O)NC1=O)C2` [Compound 901]: the Ki was under 5 nM.
With `COc1ccc2c(c1)C(=O)N(C[C@@]1(C#Cc3c[nH]c(C)n3)NC(=O)NC1=O)C2` [Compound 902], the inhibition constant (Ki) was under 5 nM.
As for `COc1ccc2c(c1)C(=O)N(C[C@@]1(C#Cc3ccc4ncsc4c3)NC(=O)NC1=O)C2` [Compound 903], the Ki is under 5 nM.
With `COc1ccc2c(c1)C(=O)N(C[C@@]1(C#Cc3ccccc3C(C)C)NC(=O)NC1=O)C2` [Compound 904], the Ki was under 5 nM.
As to `O=C1NC(=O)[C@@](C#Cc2ccc(F)cc2F)(CN2Cc3ccc(OC(F)F)cc3C2=O)N1` [Compound 905], the Ki is under 5 nM.

Still in this test, the particulars now being: rhTACEc 70 pM, 30 μM SPDL-3, 90 min pre-incubation at 25° C.; read-out: Ki (nM), TACE inhibitory activity.
Consider `COc1ccc2c(c1)C(=O)N(C[C@@]1(C#Cc3ccc(F)cc3F)NC(=O)NC1=O)C2` [Compound 490], for which the Ki stood at 0.23 nM.
The same measure, in the same setting: with `COc1ccc2c(c1)C(=O)N(C[C@@]1(C#Cc3cncc(N)c3)NC(=O)NC1=O)C2` [Compound 554] the figure was 0.31 nM.
